Source: patent US6835722B1, “Pharmaceutical compositions and preparations for treatment of metabolic bone disease” (Yuyu Industrial Co., Ltd., priority 1999, dated 2004)

What was measured:
[1] = test system: female Sprague-Dawley white rats; assay: Bone remodeling index: serum osteocalcin and alkaline phosphatase; type: in vivo; conditions: single treatment (calcitriol 0.1 μg/kg or alendronate 1.0 mg/kg), 2 months; for concentration of serum osteocalcin: FIG. 5; for activity of alkaline phosphatase: FIG. 6
Procedure: (§1) Twelve week old matured female Sprague-Dawley white rats were supplied from Daehan Biolink Co., Ltd. (Seoul, Korea) and raised in a dean room of an animal experiment laboratory in a medical school of Seoul National University. The white rats were given a week to adapt by feeding them with normal feedstuff (Purina, chow diet) and then they were divided into 6 different groups wherein each group consisted of 10 white rats with similar weight distribution, and ovariostereses were performed to all of them. The white rats were allowed to freely drink water and have food under a standardized condition of 22° C., 50% humidity, 12 h dark/light cycle.
(§2) The amount of medication administered in each group is shown in the following table 1 and the control group was administered only with equal amount of palm oil and physiological saline used in the experimental groups.
(§3) After 2 months of the onset of the above medications, 24 h urine samples were collected from the white rats by using a metabolic cage, centrifuged and then stored at −70° C. The white rats under experiment were fasted overnight decapitated, and their blood samples were collected. White rats sera were then obtained by centrifuging those blood samples and were stored at −70° C. Tibiae were separated by ablation and fixed with 4% formalin at pH 7.4.
The activity level of serum alkaline phosphatase was measured by using Technicon autoanalyzer and the concentration of osteocalcin was measured by using a kit (OSCA test, Brahams, Berlin, Germany) which uses RIA method.

post-menopausal women = conditions: clinical study; cited from earlier work
[2] = test system: female Sprague-Dawley white rats; assay: Bone histomorphometry: area of trabecular bone of tibia after ovariosteresis; type: in vivo; conditions: single treatment (calcitriol 0.1 μg/kg or alendronate 1.0 mg/kg), oral 5 days/week for 2 months after ovariosteresis; image analyzer, FIG. 2
Procedure: as §1, §2, §3

[3] = test system: female Sprague-Dawley white rats; assay: Measurement of serum calcium concentration (Technicon autoanalyzer); conditions: single treatment (calcitriol 0.1 μg/kg or alendronate 1.0 mg/kg), 2 months, FIG. 3
Procedure: as §1, §2, §3

[4] = test system: female Sprague-Dawley white rats; assay: Measurement of calcium excretion in urine (calcium/creatine of 24 h urine); type: in vivo; conditions: single treatment (calcitriol 0.1 μg/kg or alendronate 1.0 mg/kg), 2 months, FIG. 4
Procedure: as §1, §2, §3

| SMILES | concentration of serum osteocalcin [1] | activity of alkaline phosphatase [1] | reduction of rate of occurrence of new spinal fracture compared to placebo group (post-menopausal women) | area of trabecular bone [2] | serum calcium concentration [3] | calcium excretion in urine (calcium/creatine, 24 h urine) [4] |
| --- | --- | --- | --- | --- | --- | --- |
| NCCCC(O)(P(=O)(O)O)P(=O)(O)O [alendronate, 4-amino-hydroxybutylidine-1,1-bisphosphonate] | decreased | decreased | about 48% | drastically increased |  |  |
| C=C1/C(=C\C=C2/CCC[C@]3(C)[C@@H]([C@H](C)CCCC(C)(C)O)CC[C@@H]23)C[C@@H](O)C[C@@H]1O [calcitriol] | slight increase | slight increase |  | not increased | significant increase | increased markedly |
